# Measured values reported in ChEMBL document CHEMBL1146431, “Isolation and structure elucidation of ardisenone: a new, cytotoxic alkenylphenol from Ardisia iwahigensis” (J Nat Prod, 1997).
# Columns and labels:
# Assay type in all cases: functional, cell-based
# [1] = Cytotoxicity against human vinblastine-resistant KBV1 cells by SRB assay in absence of vinblastine; settings: KB-V1
# [2] = system: Lu1; assay: Cytotoxicity against human Lu1 cells by SRB assay
# [3] = system: LNCaP; assay: Cytotoxicity against human LNCAP cells by SRB assay
# [4] = system: KB; assay: Cytotoxicity against human KB cells by SRB assay
# [5] = system: Col2; assay: Cytotoxicity against human Col2 cells by SRB assay
# [6] = Cytotoxicity against human BC1 cells by SRB assay
# [7] = Cytotoxicity against human vinblastine-resistant KBV1 cells by SRB assay in presence of vinblastine; settings: KB-V1
compound,measurement,setting,value
COc1cc(O)cc(CC(=O)CCC/C=C\CCCCCCCCC(=O)c2cc(O)cc(OC)c2)c1 [ARDISENONE],IC50,[1],6.9 µg/mL
same,IC50,[2],4.9 µg/mL
same,IC50,[3],11 µg/mL
same,IC50,[4],13 µg/mL
same,IC50,[5],15 µg/mL
same,IC50,[6],8.5 µg/mL
same,IC50,[7],8 µg/mL
